This data set can be described thus: solvent given as SMILES.

For 30 molecules, emission maximum results are on record in the Deep4Chem optical property database.

SMILES strings stand for the structures. “And” between values parts separate entries of the source, which are not always exact repeats. Equal entries are not always repeated.

In the case of `COc1ccc(-c2nc(C)cc(-c3ccc(-n4c5ccccc5c5ccccc54)cc3)n2)cc1`, the emission maximum by setting is: (in C1CCOC1) 418 nm; (in CN(C)C=O) 453 nm; (in Cc1ccccc1) 390 nm; (in ClC(Cl)Cl) 421 nm.

As to `C[n+]1ccc(-c2cc[n+](C)cc2)cc1`, under “in CC#N”, the emission maximum is 353 nm.

Take `Cc1cc2c(o1)=CC1=C(C(F)(F)F)c3cc4oc(C)cc4n3[B-](F)(F)[N+]=21`: the emission maximum (in ClC(Cl)Cl) is 620 nm.

As to `CC1(C)C(/C=C/C=C/C=C/C=C2/N(CCC(=O)O)c3ccc4ccccc4c3C2(C)C)=[N+](CCC(=O)O)c2ccc3ccccc3c21`, the emission maximum (in CO) is on record as 817 nm.

As to `c1ccc([B-]23NC(C4CCCCC4)=Nc4cccc([n+]42)N=C(C2CCCCC2)N3)cc1`, the emission maximum (in ClCCl) is given as 456 nm.

As for `CC1=CC(C)=[N+]2C1=C(C)c1cccn1[B-]2(F)F`, the emission maximum (in CCCCCC) turned out to be 498 nm, the emission maximum (in CO) was 497 nm and the emission maximum (in ClCCl) stood at 500 nm.

`F[B-]1(F)OC(/C=C/c2ccccc2)=CC(c2ccccc2)=[O+]1` showed an emission maximum (in ClCCl) of 443 nm.

In the case of `COc1ccc(-c2nnc(-c3cc(-n4c5ccccc5c5ccccc54)c(-n4c5ccccc5c5ccccc54)cc3-c3nnc(-c4ccc(OC)cc4)o3)o2)cc1`, the emission maximum runs as follows: (in CC#N) 515.81 nm; (in Cc1ccccc1) 459 nm; (in ClCCl) 487.92 nm.

In turn, `COC(=O)c1cc(=O)n(C)c2cc(-c3ccc4c(c3)OCCO4)sc12` yielded an emission maximum (in CC#N) of 478 nm and an emission maximum (in ClCCl) of 473 nm.

In the case of `Cc1cc(-c2ccc(C(C)(C)C)cc2)cc(C)[o+]1`, the emission maximum runs as follows: (in CC#N) 430 nm; (in ClCCl) 417 nm.

Consider `O=P1(c2ccccc2)c2ccccc2-c2sc3ccccc3c21` (stereo not drawn), for which the emission maximum stood at 417 nm (in C1CCCCC1), 427 nm (in CC#N), 434 nm (in CCO) and 428 nm (in ClCCl).

Molecule `c1ccc2cc(-n3cnc4ccccc43)ccc2c1` yielded an emission maximum (in C1CCCCC1) of 374 nm; an emission maximum (in C1CCOC1) of 374 nm; an emission maximum (in CC#N) of 376 nm; an emission maximum (in CCO) of 376 nm; an emission maximum (in CCOC(C)=O) of 375 nm; an emission maximum (in CCOCC) of 376 nm. Also, the emission maximum stood at 377 nm (in CO), 374 nm (in Cc1ccccc1) and 375 nm (in ClC(Cl)Cl).

`COC1(OC)C2(Cl)c3nc4cc(-c5cccs5)ccc4nc3C1(Cl)C1C[C@H]3[C@@H](CC12)C1(Cl)c2nc4ccc(-c5cccs5)cc4nc2C3(Cl)C1(OC)OC` (stereo partly drawn) had an emission maximum (in CC#N) of 461 nm; an emission maximum (in CCCCCC) of 412 nm; an emission maximum (in CCOC(C)=O) of 439 nm; an emission maximum (in CO) of 491 nm; an emission maximum (in Cc1ccccc1) of 427 nm; an emission maximum (in ClC(Cl)Cl) of 441 nm. In addition, the emission maximum (in ClCCl) is 445 nm.

`COc1cc2c(cc1-c1cccs1)Cc1c3c(c4c(c1-2)-c1cc(OC)c(-c2cccs2)cc1C4)C(=O)N(CCC(C)C)C3=O`: the emission maximum (in C1CCOC1) was determined as 505 nm.

Consider `COC(=O)c1nc2c(N(C)C)nc(N(C)C)nc2n1Cc1ccccc1`, for which the emission maximum was 402 nm (in C1COCCO1), 415 nm (in CC#N), 432 nm (in CO) and 409 nm (in ClCCl).

The molecule `Cc1cccc(C2=Cc3c4ccccc4c4ccccc4[n+]3[B-](F)(F)O2)c1` had an emission maximum (in ClC(Cl)Cl) of 447 nm.

The molecule `C[C@@]12SC(Cl)=CC1=c1nc(-c3ccc(Cl)cc3)[nH]c1=C1C=C(Cl)S[C@]12C` had an emission maximum (in CC#N) of 449 nm.

`C1=C(c2ccccc2)B(c2ccccc2)Nc2c1ccc1ccccc21` showed an emission maximum (in C1CCCCC1) of 396 nm.

Consider `COc1ccc(C2=CC3=C(c4c(C)cc(C)cc4C)c4cc(-c5ccc(OC)cc5)c(-c5ccc(OC)cc5)n4[B-](F)(F)[N+]3=C2c2ccc(OC)cc2)cc1`, for which the emission maximum worked out at 666 nm (in C1CCCCC1); 674 nm (in C1CCOC1); 673 nm (in CC#N); 677 nm (in Cc1ccccc1); 672 nm (in ClCCl).

Molecule `CCCCn1c(-c2ccc(-c3nnc(-c4ccccc4)o3)cc2)nc(-c2ccccc2)c1-c1ccccc1` had an emission maximum (in ClCCl) of 441 nm.

Regarding `Cc1ccc(-c2ccc3ccc4cc(C(C)(C)C)cc5ccc2c3c45)cc1`, the emission maximum (in C1CCOC1) is reported as 384 nm and the emission maximum (in ClCCl) was found to be 384 nm.

Regarding `c1ccc(N(c2ccccc2)c2ccc(-c3cnc(-c4ccc(N(c5ccccc5)c5ccccc5)cc4)s3)cc2)cc1`, the emission maximum (in CO) came to 488 nm.

Take `O=C1c2ccccc2-c2cnccc21`: the emission maximum (in CC#N) worked out at 516.76 nm and the emission maximum (in CCCCCC) stood at 464.17 nm.

Turning to `COc1ccc(-c2nc(-c3ccc(-c4nc(-c5ccc(OC)cc5)c(-c5ccc(OC)cc5)[nH]4)cc3)[nH]c2-c2ccc(OC)cc2)cc1`, where the note is “in CC#N”, the emission maximum is 416.5 nm and 440 nm.

`CCCCOc1ccc(-c2cc(-c3ccc(OCCCC)cc3)c3ccc4c(-c5ccc(OCCCC)cc5)cc(-c5ccc(OCCCC)cc5)c5ccc2c3c54)cc1` displayed an emission maximum (in ClC(Cl)Cl) of 433 nm.

For `CC(C)(C)c1ccc2c(c1)c1cc(C(C)(C)C)ccc1n2-c1ccc(N(c2ccc(-c3ccc(-c4ccc(N(c5ccc(-n6c7ccc(C(C)(C)C)cc7c7cc(C(C)(C)C)ccc76)cc5)c5ccc(-n6c7ccc(C(C)(C)C)cc7c7cc(C(C)(C)C)ccc76)cc5)cc4)c4nsnc34)cc2)c2ccc(-n3c4ccc(C(C)(C)C)cc4c4cc(C(C)(C)C)ccc43)cc2)cc1`, the emission maximum (in ClCCl) was 600 nm.

On to `CC1=CC(C)=[N+]2C1=C(c1ccc(N(C)C)cc1)c1c(C)cc(C)n1[B-]2(F)F`, for which the emission maximum by setting is: (in C1CCOC1) 513 nm; (in CC#N) 508 nm; (in CC(=O)C(C)(C)C) 511 nm; (in CC(C)=O) 510 nm; (in CCCCCC) 511 nm; (in CCOC(C)=O) 510 nm. Also, for the setting “in CO”, the emission maximum is 514 nm and 511 nm.

As for `O=Cc1ccc(C2=C3C=c4c(oc5ccccc45)=[N+]3[B-](F)(F)n3c2cc2c4ccccc4oc23)cc1`, the emission maximum reads like this: (in C1CCCCC1) 612 nm; (in C1CCOC1) 615 nm; (in CC#N) 611 nm; (in CCOC(C)=O) 610 nm; (in CN(C)C=O) 615.5 nm; (in CO) 609.5 nm. The emission maximum is, setting by setting: (in Cc1ccccc1) 620.5 nm; (in ClCCl) 618.5 nm.

Regarding `C(=C\c1ccc(/C=C/c2ccc(N(c3ccccc3)c3ccccc3)cc2)c2nsnc12)/c1ccc(N(c2ccccc2)c2ccccc2)cc1`, the emission maximum runs as follows: (in C1CCOC1) 637 nm; (in CCOC(C)=O) 627 nm; (in CN(C)C=O) 690 nm; (in Cc1ccccc1) 611 nm; (in ClC(Cl)Cl) 651 nm; (in ClCCl) 659 nm.

Consider `CCCCCCOc1ccc(-c2ccc(/C=C/c3cc(/C=C/c4ccc(-c5ccc(OCCCCCC)cc5)cc4)ncn3)cc2)cc1`, for which the emission maximum (in ClCCl) was 483 nm.
